Here are results for 15 molecules from patent US20240166680A1, “NUCLEOSIDE ANALOG AND USE THEREOF” (SHANGHAI INSTITUTE OF MATERIA MEDICA, CHINESE ACADEMY OF …, priority 2021, published 2024).

Read-outs that look alike come from different tables or passages of the source.

Data set [1] deals with respiratory syncytial virus (RSV). As to the kind of experiment: Inhibition of respiratory syncytial virus replication by CPE in HEp-2. The class given is cell-based. The note with it: human respiratory syncytial virus, HEp-2, read-out: RSV (HEp-2) EC50.
The next data set in a line: in vitro. The note with it: human.
For the next data set, the system named is influenza A virus (H3N2). Kind of data set: Inhibition of influenza virus H3N2 replication by CPE in MDCK. As to conditions: MDCK cells. It counts as cell-based.
The nature of data set [2]: Cytotoxicity in MDCK cells (no viral infection). As to conditions: dog, without viral infection, read-out: H3N2 (MDCK) CC50. It counts as cell-based. How it is done: (§1) Determination of the inhibitory activity of compounds on the replication of respiratory syncytial virus (RSV), human coronavirus OC43, influenza A virus, and Zika virus by Cytopathogenic effect (CPE): the experimental cells were inoculated at a certain cell density to 96 well cell culture plates, and cultured overnight in a 5% CO2, 37° C. incubator. The compounds and viruses were added the next day. Depending on the tested virus, the cells were cultured in an incubator for 3-7 days under 5% CO2, 33° C. or 37° C., until 80-95% of the cells in the virus-infected control wells without compound had pathological changes. Cell viability in each well was then detected with CellTiter-Glo or CCK-8. […] The cytotoxicity test method is the same as the corresponding antiviral test method, but without viral infection.
(§2) The antiviral activity and cytotoxicity of the compound are represented by the inhibition rate (%) of the compound on the virus-induced cellular viral effect and the cell viability (%), respectively. Calculation equations are as follows:
(§3) Cell viability (%)=(reading value of test well−average value of medium control)/(average value of cell control−average value of medium control)×100;
(§4) EC50 and CC50 values were calculated by Prism software, and the inhibition curve fitting method was “log (inhibitor) vs. response—Variable slope”.

Data set [3] deals with 2019 novel coronavirus (SARS-CoV-2). Kind of data set: Inhibition of SARS-CoV-2 replication in Vero cells (qRT-PCR). It counts as cell-based. As to conditions: Severe acute respiratory syndrome coronavirus 2, 48 hours, virus copy number in supernatant by qRT-PCR.
Data set [4] in a line: Cytotoxicity in Vero cells (SARS-CoV-2 test). The class given is cell-based. As to conditions: African green monkey.
Data set [5] in a line: Cytotoxicity in Huh7 cells (no viral infection). It counts as cell-based. The note with it: human, without viral infection, read-out: HCoV OC43 (Huh7) CC50. How it is done:
as §1, §2, §3, §4

For the next data set, the system named is Zika virus. Kind of data set: Inhibition of Zika virus replication by CPE in Huh7. It counts as cell-based.
The conditions of data set [6]: in monkeys; cited from earlier work.
In data set [7] the test system is porcine epidemic diarrhea virus (PEDV). As to the kind of experiment: Inhibition of PEDV replication in Vero cells by fluorescent quantitative PCR. The note with it: 36 h, read-out: PEDV (Vero) EC50.
Data set [8] is classed as in vivo, rat. The note with it: SD rats; for AUC(0-t) / AUC(0-∞) / Cmax / T1/2 / Tmax: nucleoside metabolite in plasma; for F % (bioavailability): nucleoside metabolite. How it is done:
6 Male SD rats for each compound were divided into 2 groups (gastric administration group and intravenous injection group), 3 rats in each group. The rates were fasted for 12 h before the experiment (the intravenous experiment group was not fasted), had free access to water, and ate uniformly 4 hours after the administration. The dosages of C22 and C23 were 16 mg/kg and 20 mg/kg for intragastric administration, respectively, and the administration vehicle was 5% DMSO+5% solutol+90% saline. The intravenous injection dosages were 4 mg/kg and 5 mg/kg respectively, and the administration vehicle was DMSO/EtOH/PEG300/0.9% NaCl (5/5/40/50, v/v/v/v). 0.2 mL of blood was collected from the jugular vein 5 min, 0.25 h, 0.5 h, 1.0 h, 2.0 h, 4.0 h, 6.0 h, 8.0 h and 24 h after the administration, placed in an EDTA-K2 test tube abd centrifuged at 11,000 rpm for 5 minutes, and the plasma was separated, and stored in a −70° C. refrigerator for testing. The operation was under an ice water bath. The concentration of nucleoside metabolites in plasma was determined by LC-MS-MS, and the pharmacokinetic parameters were calculated.

Data set [9] is classed as in vivo, cynomolgus monkey. The note with it: cynomolgus monkeys, single intragastric 0.35 mmol/kg.
Data set [10] is classed as in vivo, rat. The note with it: SD rats. How it is done:
6 Male SD rats for each compound were divided into 2 groups (gastric administration group and intravenous injection group), 3 rats in each group. The rats were fasted for 12 h before the experiment (the intravenous experiment group was not fasted), had free access to water, and ate uniformly 4 hours after the administration. […] The dosage of C38 was 10 mg/kg for intragastric administration, 2 mg/kg for intravenous injection, and the administration vehicle was DMSO/EtOH/PEG300/0.9% NaCl (5/5/40/50, v/v/v/v). 0.2 mL of blood was collected from the jugular vein at 5 min (intravenous group only), 0.25 h, 0.5 h, 1.0 h, 2.0 h, 4.0 h, 6.0 h, 8.0 h and 24 h after the administration, placed in an EDTA-K2 test tube and centrifuged at 11,000 rpm for 5 minutes, and the plasma was separated, and stored in a −70° C. refrigerator for testing. The operation was under an ice water bath. The concentration of nucleoside metabolites in plasma was determined by LC-MS-MS, and the pharmacokinetic parameters were calculated.

[11] abbreviates: nucleoside metabolite in plasma, iv 2 mg/kg.
[12] abbreviates: nucleoside metabolite in plasma, po 10 mg/kg.

Consider `N#C[C@@]1(c2ccc3c(N)ncnn23)O[C@H](CO)[C@H]2OC(=O)O[C@H]21` [Compound C21], for which the EC50 in data set [1] came out at 0.49 µM. The molecule also displayed a CC50 in the data set “in vitro” greater than 10 µM.

As for `CC(=O)OC[C@@]1(F)O[C@@H](n2ccc(=O)[nH]c2=O)[C@@H]2OC(=O)O[C@@H]21` [Compound B38], the EC50 in [1] was found to be 0.99 µM; in the data set with influenza A virus (H3N2), 0.54 µM. In addition, the CC50 (in data set [2]; in the data set “in vitro”) was greater than 10 µM in each case.

On to `N#C[C@@]1(c2ccc3c(N)ncnn23)O[C@H](CO)[C@@H](O)[C@H]1O` [GS-441524, (2R,3R,4S,5R)-2-(4-aminopyrrolo[2,1-F][1,2,4]triazin-7-yl)-3,4-dihydroxy-5-(hydroxymethyl)tetrahydrofuran-2-carbonitrile], for which the EC50 amounted to 0.47 µM in data set [3]; 0.73 µM in [1]; 15 µM with Zika virus (Huh-7, read-out: Zika (Huh7) EC50); 0.31 µM in [7]. Also, the CC50 (in data set [4]; in data set [5]; in the data set “in vitro”) was greater than 10 µM in each case. The oral bioavailability result in data set [6] is reported as “less than 10%”.

Turning to `O=C1O[C@H]2[C@H](n3ccc(=O)[nH]c3=O)O[C@](F)(CO)[C@H]2O1` [Compound B1], the EC50 in [1] turned out to be 0.99 µM; with influenza A virus (H3N2), 0.37 µM. Moreover, the CC50 (in data set [2]; in “in vitro”) was greater than 10 µM in each case.

Turning to `[2H]c1cc([C@]2(C#N)O[C@H](CO)[C@H]3OC(=O)O[C@H]32)n2ncnc(N)c12` [Compound C22], in [8] (iv 4 mg/kg), the “AUC(0-t)” value is 2.348 µg·h/mL, the “AUC(0-∞)” value is 2.398 µg·h/mL, the Cmax was determined as 2.883 µg/mL and the T1/2 turned out to be 1.35 h. In [8] (po 16 mg/kg), the “AUC(0-t)” value turned out to be 7.068 µg·h/mL, the “AUC(0-∞)” value is 7.157 µg·h/mL, the Cmax stood at 2.217 µg/mL and the T1/2 was 1.08 h. Further, the Tmax in [8] (po 16 mg/kg) came out at 0.5 h. Also, the “F % (bioavailability)” value in data set [8] (po 16 mg/kg vs iv 4 mg/kg) amounted to 75.3%.

For the molecule `CC(C)[C@H](N)C(=O)OC[C@H]1O[C@@H](n2cc/c(=N/O)[nH]c2=O)[C@@H]2OC(=O)O[C@@H]21.Cl` [Compound A6], in data set [9] (analyte A1), the AUC(0-t) is 0.818 µg·h/mL, the Cmax is 0.326 µg/mL, the Tmax is given as 1.50 h and the t1/2 was 0.91 h. In addition, in data set [9] (nucleoside metabolite NHC), the AUC(0-t) was 2.417 µg·h/mL, the Cmax worked out at 1.209 µg/mL, the T1/2 was determined as 0.83 h and the Tmax is listed as 1.50 h.

With `CCC(CC)COC(=O)[C@H](C)N[P@](=O)(OC[C@@]1(F)O[C@@H](n2ccc(=O)[nH]c2=O)[C@@H]2OC(=O)O[C@@H]21)Oc1ccccc1` [Compound B14], the EC50 in data set [1] is 1.08 µM. Besides, the CC50 in the data set “in vitro” is greater than 10 µM.

As for `CC(C)C(=O)OC[C@@]1(F)O[C@@H](n2ccc(=O)[nH]c2=O)[C@@H]2OC(=O)O[C@@H]21` [Compound B2], the EC50 (in data set [1]; in the data set with influenza A virus (H3N2)) was greater than 10 µM throughout. The CC50 (in [2]; in the data set “in vitro”) was greater than 10 µM in each case.

`CC(C)[C@H](N)C(=O)OC[C@@]1(F)O[C@@H](n2ccc(=O)[nH]c2=O)[C@@H]2OC(=O)O[C@@H]21` [Compound B6]: the EC50 in [1] is 3.46 µM; in the data set with influenza A virus (H3N2) it was less than 0.5 µM. The CC50 (in data set [2]; in the data set “in vitro”) was greater than 10 µM in each case.

Turning to `O=C1O[C@H]2[C@H](n3ccc(=O)[nH]c3=O)O[C@](F)(COC(=O)C3CC3)[C@H]2O1` [Compound B4], the EC50 was 1.02 µM in [1] and 1.38 µM in the data set with influenza A virus (H3N2). Further, the CC50 (in data set [2]; in “in vitro”) was greater than 10 µM each time.

Regarding `CCCCCCCCCCCCCCCC(=O)OC[C@@]1(F)O[C@@H](n2ccc(=O)[nH]c2=O)[C@@H]2OC(=O)O[C@@H]21` [Compound B41], the results for the EC50 (in [1]; with influenza A virus (H3N2)) were 0.46 µM and less than 0.5 µM, respectively. Besides, the CC50 (in data set [2]; in “in vitro”) was greater than 10 µM each time.

In the case of `[2H]c1cc([C@]2(C#N)O[C@H](COC(=O)C(C)C)[C@H]3OC(=O)O[C@H]32)n2ncnc(N)c12` [Compound C23], in data set [8] (iv 5 mg/kg), the “AUC(0-t)” value was determined as 3.954 µg·h/mL, the “AUC(0-∞)” value is 4.024 µg·h/mL, the Cmax was 3.903 µg/mL and the T1/2 was found to be 5.24 h. Besides, in [8] (po 20 mg/kg), the “AUC(0-t)” value amounted to 11.36 µg·h/mL, the “AUC(0-∞)” value is 11.393 µg·h/mL, the Cmax turned out to be 2.933 µg/mL and the T1/2 was 3.47 h. In data set [8] (po 20 mg/kg), the Tmax turned out to be 1.0 h. Further, the “F % (bioavailability)” value in data set [8] (po 20 mg/kg vs iv 5 mg/kg) came to 71.8%.

Molecule `CC(C)C(=O)OC[C@H]1O[C@@H](n2ccc(NO)nc2=O)[C@@H]2OC(=O)O[C@@H]21` [Compound A2] showed an EC50 in the data set on influenza A virus (H3N2) greater than 10 µM. The CC50 in data set [2] is greater than 10 µM.

In the data set with influenza A virus (H3N2), `O=c1ccn([C@@H]2O[C@](F)(CO)[C@@H](O)[C@H]2O)c(=O)[nH]1` [Compound B1-N, reference compound] had an EC50 of less than 1 µM. Besides, in data set [2], the CC50 is greater than 10 µM. For the same molecule, the inhibition at 5 µM with Zika virus (Huh-7, read-out: Zika (Huh7) Inhibition rate) came to 30%.

As for `[2H]c1cc([C@]2(C#N)O[C@H](CO)[C@H]3OC(CC)O[C@H]32)n2ncnc(N)c12` (stereo partly shown) [Compound C38], in data set [10] (setting [11]), the “AUC(0-t)” value came to 0.551 µg·h/mL, the “AUC(0-∞)” value came out at 0.586 µg·h/mL, the Cmax is 0.217 µg/mL and the T1/2 was determined as 1.9 h. In addition, in data set [10] (setting [12]), the “AUC(0-t)” value is 2.388 µg·h/mL, the “AUC(0-∞)” value was determined as 2.454 µg·h/mL, the Cmax turned out to be 0.586 µg/mL and the T1/2 stood at 3.1 h. The Tmax in [10] (setting [12]) amounted to 0.75 h. Also, the “F % (bioavailability)” value in data set [10] (nucleoside metabolite, po 10 mg/kg vs iv 2 mg/kg) worked out at 87%.
